According to ChEMBL document CHEMBL1139888, “Fungicidal activities of dihydroferulic acid alkyl ester analogues” (2007):
In brackets after ≈: the same amount, converted by molar mass.

Key:
Format in all cases: functional
Saccharomyces cerevisiae [1] = experiment: Antifungal activity against wild type Saccharomyces cerevisiae BY47411 assessed as cell number at 6.4 mM after 48 hrs
Saccharomyces cerevisiae [2] = experiment: Growth inhibition of wild type Saccharomyces cerevisiae BY47411 at 0.8 mM after 48 hrs relative to control
Saccharomyces cerevisiae [3] = experiment: Growth inhibition of wild type Saccharomyces cerevisiae BY47411 at 1.6 mM after 48 hrs relative to control
Saccharomyces cerevisiae [4] = experiment: Antifungal activity against wild type Saccharomyces cerevisiae BY47411 assessed as cell number at 3.2 mM after 48 hrs
Saccharomyces cerevisiae [5] = experiment: Antifungal activity against wild type Saccharomyces cerevisiae BY47411 assessed as cell number at 1.6 mM after 48 hrs
Saccharomyces cerevisiae [6] = experiment: Growth inhibition of wild type Saccharomyces cerevisiae BY47411 at 3.2 mM after 48 hrs relative to control
Saccharomyces cerevisiae [7] = experiment: Growth inhibition of wild type Saccharomyces cerevisiae BY47411 at 6.4 mM after 48 hrs relative to control
Saccharomyces cerevisiae [8] = experiment: Growth inhibition of wild type Saccharomyces cerevisiae BY47411 at 5 mM after 48 hrs relative to control
Saccharomyces cerevisiae [9] = experiment: Antifungal activity against wild type Saccharomyces cerevisiae BY47411 assessed as cell number at 0.8 mM after 48 hrs
Saccharomyces cerevisiae [10] = experiment: Antifungal activity against wild type Saccharomyces cerevisiae BY47411 after 24 hrs
Aspergillus flavus [11] = experiment: Fungicidal activity against wild type Aspergillus flavus NRRL3357 assessed as radial growth on potato dextrose agar plate at 0.4 mM after 4 days
Aspergillus fumigatus [12] = experiment: Growth inhibition of wild type Aspergillus fumigatus AF293 at 3.2 mM after 4 days; details: AF293, 96 h
Aspergillus fumigatus [13] = experiment: Growth inhibition of wild type Aspergillus fumigatus AF293 at 0.1 mM after 4 days; details: AF293, 96 h
Aspergillus flavus [14] = experiment: Growth inhibition of wild type Aspergillus flavus NRRL3357 at 1.6 mM after 4 days; details: NRRL3357, 96 h
Saccharomyces cerevisiae [15] = experiment: Antifungal activity against Saccharomyces cerevisiae bck1delta deletion mutant assessed as cell number at 1.6 mM after 48 hrs
Aspergillus flavus [16] = experiment: Fungicidal activity against wild type Aspergillus flavus NRRL3357 assessed as radial growth on potato dextrose agar plate at 0.1 mM after 4 days
Aspergillus flavus [17] = experiment: Fungicidal activity against wild type Aspergillus flavus NRRL3357 assessed as radial growth on potato dextrose agar plate at 3.2 mM after 4 days
Aspergillus flavus [18] = experiment: Fungicidal activity against wild type Aspergillus flavus NRRL3357 assessed as radial growth on potato dextrose agar plate at 0.2 mM after 4 days
Aspergillus flavus [19] = experiment: Fungicidal activity against wild type Aspergillus flavus NRRL3357 assessed as radial growth on potato dextrose agar plate at 0.8 mM after 4 days
Aspergillus fumigatus [20] = experiment: Growth inhibition of wild type Aspergillus fumigatus AF293 at 1.6 mM after 4 days; details: AF293, 96 h
Aspergillus fumigatus [21] = experiment: Fungicidal activity against wild type Aspergillus fumigatus AF293 assessed as radial growth on potato dextrose agar plate at 6.4 mM after 4 days
Aspergillus flavus [22] = experiment: Fungicidal activity against wild type Aspergillus flavus NRRL3357 assessed as radial growth on potato dextrose agar plate at 1.6 mM after 4 days
Aspergillus flavus [23] = experiment: Growth inhibition of wild type Aspergillus flavus NRRL3357 at 0.1 mM after 4 days; details: NRRL3357, 96 h
Aspergillus fumigatus [24] = experiment: Growth inhibition of wild type Aspergillus fumigatus AF293 at 0.8 mM after 4 days; details: AF293, 96 h
Aspergillus fumigatus [25] = experiment: Fungicidal activity against wild type Aspergillus fumigatus AF293 assessed as radial growth on potato dextrose agar plate at 1.6 mM after 4 days
Aspergillus fumigatus [26] = experiment: Growth inhibition of wild type Aspergillus fumigatus AF293 at 0.4 mM after 4 days; details: AF293, 96 h
Saccharomyces cerevisiae [27] = experiment: (§1) Growth inhibition of Saccharomyces cerevisiae bck1delta deletion mutant at 3.2 mM relative to control after 48 hrs
Aspergillus flavus [28] = experiment: Growth inhibition of wild type Aspergillus flavus NRRL3357 at 6.4 mM after 4 days; details: NRRL3357, 96 h
Aspergillus flavus [29] = experiment: Fungicidal activity against wild type Aspergillus flavus NRRL3357 assessed as radial growth on potato dextrose agar plate at 6.4 mM after 4 days
Aspergillus fumigatus [30] = experiment: Fungicidal activity against wild type Aspergillus fumigatus AF293 assessed as radial growth on potato dextrose agar plate at 0.8 mM after 4 days
Aspergillus fumigatus [31] = experiment: Antifungal activity against Aspergillus fumigatus AF293
Aspergillus flavus [32] = experiment: Growth inhibition of wild type Aspergillus flavus NRRL3357 at 0.2 mM after 4 days; details: NRRL3357, 96 h
Aspergillus fumigatus [33] = experiment: Growth inhibition of wild type Aspergillus fumigatus AF293 at 6.4 mM after 4 days; details: AF293, 96 h
Aspergillus flavus [34] = experiment: Growth inhibition of wild type Aspergillus flavus NRRL3357 at 0.4 mM after 4 days; details: NRRL3357, 96 h
Aspergillus fumigatus [35] = experiment: Growth inhibition of wild type Aspergillus fumigatus AF293 at 0.2 mM after 4 days; details: AF293, 96 h
Aspergillus fumigatus [36] = experiment: Fungicidal activity against wild type Aspergillus fumigatus AF293 assessed as radial growth on potato dextrose agar plate at 3.2 mM after 4 days
Aspergillus fumigatus [37] = experiment: Fungicidal activity against wild type Aspergillus fumigatus AF293 assessed as radial growth on potato dextrose agar plate at 0.2 mM after 4 days
Saccharomyces cerevisiae [38] = experiment: as §1; remark: listed apart in the source
Saccharomyces cerevisiae [39] = experiment: Antifungal activity against Saccharomyces cerevisiae bck1delta deletion mutant assessed as cell number at 3.2 mM after 48 hrs
Aspergillus fumigatus [40] = experiment: Fungicidal activity against wild type Aspergillus fumigatus AF293 assessed as radial growth on potato dextrose agar plate at 0.1 mM after 4 days
Aspergillus fumigatus [41] = experiment: Fungicidal activity against wild type Aspergillus fumigatus AF293 assessed as radial growth on potato dextrose agar plate at 0.4 mM after 4 days
Aspergillus flavus [42] = experiment: Growth inhibition of wild type Aspergillus flavus NRRL3357 at 0.8 mM after 4 days; details: NRRL3357, 96 h
Aspergillus flavus [43] = experiment: Antifungal activity against Aspergillus flavus NRRL3357
Aspergillus flavus [44] = experiment: Growth inhibition of wild type Aspergillus flavus NRRL3357 at 3.2 mM after 4 days; details: NRRL3357, 96 h

SMILES: CCCCCCOC(=O)CCc1ccc(O)c(OC)c1 [HEXYLHYDROFERULATE]
- Activity (Saccharomyces cerevisiae [1]): 0.28
- inhibition at 800 µM (Saccharomyces cerevisiae [2]): 18.7%
- inhibition at 1600 µM (Saccharomyces cerevisiae [3]): 38.3%
- Activity (Saccharomyces cerevisiae [4]): 1
- Activity (Saccharomyces cerevisiae [5]): 2.74
- inhibition at 3200 µM (Saccharomyces cerevisiae [6]): 77.5%
- inhibition at 6400 µM (Saccharomyces cerevisiae [7]): 93.7%
- inhibition at 5000 µM (Saccharomyces cerevisiae [8]): 18.8%
- Activity (Saccharomyces cerevisiae [9]): 3.61

SMILES: COC(=O)CCc1ccc(O)c(OC)c1 [DIHYDROFERULIC ACID METHYL ESTER]
- MIC50 (Saccharomyces cerevisiae [10]): 2.1 mM (≈ 441 µg/mL)
- MIC90 (Saccharomyces cerevisiae [10]): 5.6 mM (≈ 1180 µg/mL)
- inhibition at 5000 µM (Saccharomyces cerevisiae [8]): 100%

SMILES: CCOC(=O)CCc1ccc(O)c(OC)c1 [DIHYDROFERULIC ACID ETHYL ESTER]
- MIC50 (Saccharomyces cerevisiae [10]): 4 mM (≈ 897 µg/mL)
- MIC90 (Saccharomyces cerevisiae [10]): > 6.4 mM
- inhibition at 6400 µM (Saccharomyces cerevisiae [7]): 87%
- inhibition at 5000 µM (Saccharomyces cerevisiae [8]): 98.7%

SMILES: COc1cc(CCC(=O)O)ccc1O [DIHYDROFERULIC ACID]
- MIC50 (Saccharomyces cerevisiae [10]): 6.4 mM (≈ 1260 µg/mL)
- inhibition at 5000 µM (Saccharomyces cerevisiae [8]): 6.4%

SMILES: CCCCCCCCCCOC(=O)CCc1ccc(O)c(OC)c1 [DIHYDROFERULIC ACID DECYL ESTER]
- inhibition at 5000 µM (Saccharomyces cerevisiae [8]): 2.8%

SMILES: CCCCCCCCOC(=O)CCc1ccc(O)c(OC)c1 [DIHYDROFERULIC ACID OCTYL ESTER]
- inhibition at 5000 µM (Saccharomyces cerevisiae [8]): 6.2%

SMILES: CCCOC(=O)CCc1ccc(O)c(OC)c1 [DIHYDROFERULIC ACID PROPYL ESTER]
- Activity (Saccharomyces cerevisiae [1]): 0
- Activity (Aspergillus flavus [11]): 3 cm
- inhibition at 3200 µM (Aspergillus fumigatus [12]): 78.8%
- inhibition at 100 µM (Aspergillus fumigatus [13]): 0%
- inhibition at 1600 µM (Aspergillus flavus [14]): 28.2%
- Activity (Saccharomyces cerevisiae [15]): 1.07
- inhibition at 800 µM (Saccharomyces cerevisiae [2]): 32.7%
- Activity (Aspergillus flavus [16]): 3.2 cm
- Activity (Aspergillus flavus [17]): 1.5 cm
- Activity (Aspergillus flavus [18]): 3.1 cm
- Activity (Aspergillus flavus [19]): 2.8 cm
- inhibition at 1600 µM (Aspergillus fumigatus [20]): 42.6%
- Activity (Aspergillus fumigatus [21]): 0 cm
- Activity (Aspergillus flavus [22]): 2.3 cm
- inhibition at 1600 µM (Saccharomyces cerevisiae [3]): 57.4%
- inhibition at 100 µM (Aspergillus flavus [23]): 0%
- inhibition at 800 µM (Aspergillus fumigatus [24]): 17.1%
- Activity (Aspergillus fumigatus [25]): 2.7 cm
- inhibition at 400 µM (Aspergillus fumigatus [26]): 10.7%
- Activity (Saccharomyces cerevisiae [4]): 0.03
- inhibition at 3200 µM (Saccharomyces cerevisiae [27]): 76.8%
- Activity (Saccharomyces cerevisiae [5]): 1.89
- inhibition at 6400 µM (Aspergillus flavus [28]): 100%
- Activity (Aspergillus flavus [29]): 0 cm
- Activity (Aspergillus fumigatus [30]): 3.9 cm
- MIC50 (Aspergillus fumigatus [31]): 2.1 mM (≈ 500 µg/mL)
- inhibition at 200 µM (Aspergillus flavus [32]): 3.2%
- inhibition at 6400 µM (Aspergillus fumigatus [33]): 100%
- inhibition at 400 µM (Aspergillus flavus [34]): 6.3%
- inhibition at 200 µM (Aspergillus fumigatus [35]): 2.2%
- Activity (Aspergillus fumigatus [36]): 1 cm
- Activity (Aspergillus fumigatus [37]): 4.6 cm
- inhibition at 3200 µM (Saccharomyces cerevisiae [38]): 93%
- MIC50 (Saccharomyces cerevisiae [10]): 1.5 mM (≈ 357 µg/mL)
- MIC90 (Saccharomyces cerevisiae [10]): 4.5 mM (≈ 1070 µg/mL)
- inhibition at 3200 µM (Saccharomyces cerevisiae [6]): 99.3%
- Activity (Saccharomyces cerevisiae [39]): 0.32
- Activity (Aspergillus fumigatus [40]): 4.7 cm
- Activity (Aspergillus fumigatus [41]): 4.2 cm
- inhibition at 6400 µM (Saccharomyces cerevisiae [7]): 100%
- inhibition at 800 µM (Aspergillus flavus [42]): 12.5%
- MIC50 (Aspergillus flavus [43]): 2.9 mM (≈ 691 µg/mL)
- inhibition at 3200 µM (Aspergillus flavus [44]): 53.2%
- inhibition at 5000 µM (Saccharomyces cerevisiae [8]): 99.4%
- Activity (Saccharomyces cerevisiae [9]): 2.99
